Test results from article doi:10.1101/2024.03.29.587371v1 (biorxiv, 2024).
One block for each compound: values may come before it. Residues, ends and D or L forms follow the SMILES beside them.

Assays:
Format in all cases: biochemical
AtFBA4 (SUMO-AtFBA4) [1] = target: T1, AtFBA4 (SUMO-AtFBA4) (Arabidopsis thaliana, UniProt F4KGQ0); assay: coupled NADH assay, activity relative to control; details: read-out: % residual activity at 5.0 mM
T1 sequence (F4KGQ0 1-393): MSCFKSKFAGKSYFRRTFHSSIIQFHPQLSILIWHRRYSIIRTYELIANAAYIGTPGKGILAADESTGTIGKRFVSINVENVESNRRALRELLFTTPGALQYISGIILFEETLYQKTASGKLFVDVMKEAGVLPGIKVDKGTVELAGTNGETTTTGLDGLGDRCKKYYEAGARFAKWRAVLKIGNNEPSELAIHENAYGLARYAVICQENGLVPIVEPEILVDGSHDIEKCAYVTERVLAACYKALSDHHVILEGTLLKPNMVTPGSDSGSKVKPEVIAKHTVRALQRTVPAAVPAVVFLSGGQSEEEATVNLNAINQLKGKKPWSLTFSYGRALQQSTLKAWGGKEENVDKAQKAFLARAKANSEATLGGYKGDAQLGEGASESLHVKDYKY

AtFBA5 (SUMO-AtFBA5) [2] = target: T2, AtFBA5 (SUMO-AtFBA5) (Arabidopsis thaliana, UniProt O65581); assay: coupled NADH assay, activity relative to control
T2 sequence (O65581 1-358): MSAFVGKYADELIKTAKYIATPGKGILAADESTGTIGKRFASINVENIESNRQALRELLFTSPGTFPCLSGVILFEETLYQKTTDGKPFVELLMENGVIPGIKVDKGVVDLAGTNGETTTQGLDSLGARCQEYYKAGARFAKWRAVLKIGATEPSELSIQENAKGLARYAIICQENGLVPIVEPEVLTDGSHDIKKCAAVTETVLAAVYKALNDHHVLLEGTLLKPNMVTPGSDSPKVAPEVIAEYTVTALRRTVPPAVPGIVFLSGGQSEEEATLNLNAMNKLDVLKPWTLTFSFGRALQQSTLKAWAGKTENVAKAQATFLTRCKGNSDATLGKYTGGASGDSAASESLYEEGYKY

AtFBA4 (SUMO-AtFBA4) [3] = target: T1, AtFBA4 (SUMO-AtFBA4); assay: coupled NADH assay at […] nm, FBP saturation curves with inhibitor
AtFBA5 (SUMO-AtFBA5) [4] = target: T2, AtFBA5 (SUMO-AtFBA5); assay: as above

Compound: O=C(O)CCC(=O)C(=O)O [2-OG]
remaining activity at 5000 µM (AtFBA4 (SUMO-AtFBA4) [1]): 69 ± 2%

Compound: O=C(O)C[C@H](O)C(=O)O [Malate]
remaining activity at 5000 µM (AtFBA4 (SUMO-AtFBA4) [1]): 68 ± 12%

The next lines start with the values.

% of control activity at 1.0 mM (AtFBA5 (SUMO-AtFBA5) [2]; pH 7.5, 250 µM FBP): 144 ± 10%
Compound: O=P(O)(O)OP(=O)(O)O [PPi]

remaining activity at 500 µM (AtFBA5 (SUMO-AtFBA5) [2]; read-out: % residual activity at 0.50 mM): 82 ± 5%
Compound: N[C@@H](Cc1ccc(O)cc1)C(=O)N[C@@H](CC(=O)O)C(=O)O [Tyr-Asp] (H-Tyr-Asp-OH)

Ki (AtFBA4 (SUMO-AtFBA4) [3]): 80 ± 10 µM
Ki (AtFBA5 (SUMO-AtFBA5) [4]): 63 ± 4 µM
Compound: O=c1c(O)c(-c2ccc(O)cc2O)oc2cc(O)cc(O)c12 [morin, 3,5,7,2′,4′-pentahydroxyflavone]
